Our source for the IC50 values is patent US6410792B1, “Amide derivatives and methods for using the same as selective neuropeptide Y receptor antagonists” (Bayer Corporation, priority 1997, dated 2002).

The target in assay [1] is T1, Y2 receptor (Homo sapiens, UniProt P49146).
T1 sequence (P49146 1-381): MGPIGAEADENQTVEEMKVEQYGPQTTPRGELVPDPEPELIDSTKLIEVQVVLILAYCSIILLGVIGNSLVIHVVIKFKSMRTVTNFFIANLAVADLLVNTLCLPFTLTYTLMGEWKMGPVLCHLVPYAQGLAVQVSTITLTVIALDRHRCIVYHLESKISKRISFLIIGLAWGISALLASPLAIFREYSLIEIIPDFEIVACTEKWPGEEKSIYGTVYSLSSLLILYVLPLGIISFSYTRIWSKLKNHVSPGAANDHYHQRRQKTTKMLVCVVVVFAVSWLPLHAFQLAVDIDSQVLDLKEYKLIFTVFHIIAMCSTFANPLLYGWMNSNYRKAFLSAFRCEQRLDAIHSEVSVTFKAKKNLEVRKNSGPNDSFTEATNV
As to the kind of experiment: Y2 receptor binding assay ([125I]PYY, membrane protein). The conditions noted are these: [125I]PYY, membrane protein; read-out: hNPY2 IC50. The essentials:
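Filtration binding with membrane protein and drug dilution, 2 h at room temperature with mixing, radioactivity counted by gamma or scintillation. Y2: 25 pM [125I]PYY in Krebs-Ringer bicarbonate pH 7.4 with 0.01% BSA, nonspecific by 1 μM NPY. Y4/PP1: 50 pM [125I]hPP in HEPES-buffered saline pH 7.4 with protease inhibitors and 0.3% BSA, nonspecific by 1 μM hPP.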

For assay [2], the target named is human Y4/PP1 receptor (Homo sapiens, UniProt P50391). As to the kind of experiment: Human Y4/PP1 receptor binding assay ([125I]human PP, membrane protein). Conditions: [125I]human PP, membrane protein; read-out: hNPY4 IC50. As for the experimental part: B. Human Y2 and Y4/PP1 Receptor Binding Assays
Binding assays were performed on GF/C Millipore 96-well plates pretreated with 0.02% polyethylenimine. The binding buffer for rat Y2 binding is Krebs-Ringer bicarbonate (pH 7.4) containing 0.01% BSA and 0.005% bacitracin. Samples consist of membrane protein, 25 pM [1251]PYY and drug dilution. Nonspecific binding is defined by 1 μM NPY. The binding buffer for human Y4/PP1 binding consists of 137 mM NaCl, 5.4 mM KCl, 0.44 mM KH2PO4, 1.26 mM CaCl2, 0.81 mM MgSO4, 20 mM HEPES, 1 mM dithiothreitol, 0.1% bacitracin, 100 mg/l streptomycin sulfate, 1 mg/l aprotinin, 10 mg/ml soybean trypsin inhibitor and 0.3% BSA, pH 7.4. Samples consist of membrane protein, 50 pM human [1251]human PP (hPP: NEN DuPont, Boston, Mass.) and drug dilution. 1 μM hPP is used to define nonspecific binding.
After a 2 hour incubation at room temperature with constant mixing, the samples are aspirated on a vacuum manifold, and rinsed with ice-cold binding buffer. The amount of radioactivity in each well is quantitated with either gamma counting or liquid scintillation.

Assay [3] has as its target T2, Human NPY5 receptor (Homo sapiens, UniProt Q15761).
T2 sequence (Q15761 1-445): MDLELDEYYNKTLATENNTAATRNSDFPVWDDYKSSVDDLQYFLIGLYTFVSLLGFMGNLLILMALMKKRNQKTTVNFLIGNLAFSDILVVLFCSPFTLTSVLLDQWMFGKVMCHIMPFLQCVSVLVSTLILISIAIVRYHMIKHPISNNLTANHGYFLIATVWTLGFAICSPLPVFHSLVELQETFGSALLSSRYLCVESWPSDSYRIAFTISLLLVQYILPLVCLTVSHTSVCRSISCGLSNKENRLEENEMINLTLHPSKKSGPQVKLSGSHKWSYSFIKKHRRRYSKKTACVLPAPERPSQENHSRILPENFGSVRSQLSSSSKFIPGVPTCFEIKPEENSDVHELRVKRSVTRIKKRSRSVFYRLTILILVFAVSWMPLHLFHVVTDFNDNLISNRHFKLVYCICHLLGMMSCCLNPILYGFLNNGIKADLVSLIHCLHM
Kind of assay: Human NPY5 receptor binding assay ([125I]PYY, membrane protein). Conditions: read-out: hNPY5 IC50. The essentials: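 Membrane protein incubated 2 h at room temperature with 75-100 pM porcine [125I]PYY and compound in pH 7.4 Tris buffer with salts, 0.1% BSA and bacitracin. Nonspecific binding with 1 μM PYY. Filtration, then gamma or scintillation counting.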

Assay [4] has as its target T3, Rat NPY5 receptor (Rattus norvegicus, UniProt Q63634).
T3 sequence (Q63634 1-445): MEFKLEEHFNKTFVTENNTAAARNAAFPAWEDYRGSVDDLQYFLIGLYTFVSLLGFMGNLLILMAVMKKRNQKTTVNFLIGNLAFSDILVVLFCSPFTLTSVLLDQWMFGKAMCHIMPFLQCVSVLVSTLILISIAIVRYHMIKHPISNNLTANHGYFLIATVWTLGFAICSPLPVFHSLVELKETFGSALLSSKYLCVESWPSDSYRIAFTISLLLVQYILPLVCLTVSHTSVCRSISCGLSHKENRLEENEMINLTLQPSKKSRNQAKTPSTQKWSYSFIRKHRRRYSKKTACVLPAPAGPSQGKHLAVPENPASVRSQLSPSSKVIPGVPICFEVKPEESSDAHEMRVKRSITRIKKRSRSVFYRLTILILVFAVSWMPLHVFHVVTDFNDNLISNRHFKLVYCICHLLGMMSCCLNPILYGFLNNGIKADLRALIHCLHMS
As to the kind of experiment: Rat NPY5 receptor binding assay ([125I]PYY, membrane protein). As for the experimental part:
C. Human and Rat NPY5 Receptor Binding Assays
Binding assays are performed on GF/C Millipore 96well plates pretreated with 0.02% polyethylenimine. The binding buffer is 25 mM Tris, 120 mM NaCl, 5 mM KCl, 1.2 mM KH2PO4, 2.5 mM CaCl2, 1.2 mM MgSO4, 0.1% BSA and 0.5 mg/ml bacitracin, pH 7.4. Samples consist of membrane protein, 75-100 pM [125I]PYY (porcine, NEN-DuPont) and drug dilution. Nonspecific binding is defined by 1 μM PYY. After a 2 hour incubation at room temperature with constant mixing, the samples are aspirated on a vacuum manifold, and rinsed with ice-cold binding buffer. The amount of radioactivity in each well is quantitated with either gamma counting or liquid scintillation.

Where [5] appears, read: [125I]PYY binding, read-out: rNPY5 IC50.

Where a name gives a salt, the structure may show the parent alone. Read-outs that look alike come from different tables or passages of the source. Some results are limits rather than exact numbers.

For orientation: IC50 means the concentration that inhibits the measured activity by half.

Chain of human Y4/PP1 receptor (P50391 whole entry): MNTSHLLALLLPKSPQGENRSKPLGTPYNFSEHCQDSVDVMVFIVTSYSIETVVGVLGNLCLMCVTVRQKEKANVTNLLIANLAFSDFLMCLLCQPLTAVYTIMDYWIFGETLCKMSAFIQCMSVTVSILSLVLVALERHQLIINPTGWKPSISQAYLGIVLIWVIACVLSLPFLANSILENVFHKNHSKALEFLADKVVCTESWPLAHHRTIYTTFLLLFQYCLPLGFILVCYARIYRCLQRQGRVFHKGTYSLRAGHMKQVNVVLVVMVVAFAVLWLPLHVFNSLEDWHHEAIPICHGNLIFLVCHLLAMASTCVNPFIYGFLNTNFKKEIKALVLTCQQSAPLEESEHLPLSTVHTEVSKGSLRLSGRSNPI

In the case of `NC(=O)c1cc(N)ccc1NC(=O)CN1CCC(n2c(=O)[nH]c3ccccc32)CC1` [Compound 334, 5-Amino-2-{2-[4-(2-oxo-2,3-dihydro-benzoimidazol-1-yl)piperidin 1-yl]-acetylamino}-benzamide, reference compound], the IC50 in assay [1] and in assay [2] was above 5000 nM in each case.
For the compound `COC(=O)c1cc(Cl)ccc1NC(=O)CN1CCC(n2c(=O)[nH]c3ccccc32)CC1` [Compound 333, 5-Chloro-2-{2-[4-(2-oxo-2,3-dihydro-benzoimidazol-1-yl)-piperidin 1-yl]-acetylamino}-benzoic acid methyl ester, reference compound], the IC50 in assay [1] and in assay [2] was above 5000 nM each time.
On to `O=C(CNCC1CC1)Nc1ccc(C2CCCCC2)cc1` [Compound 174, N-(4-Cyclohexyl-phenyl)-2-(cyclopropylmethyl-amino)-acetamide], for which the IC50 worked out at 610 nM in assay [3] ([125I]PYY binding) and 840 nM in assay [4] (setting [5]).
Regarding `COC(CNCC(=O)Nc1ccc(C2CCCCC2)cc1)OC` [Compound 241, N-(4-Cyclohexyl-phenyl)-2-(2,2-dimethoxy-ethylamino)-acetamide], the IC50 is 280 nM in assay [3] ([125I]PYY binding) and 230 nM in assay [4] (setting [5]).
As to `CCC(=O)C1(c2ccccc2)CCN(CC(=O)Nc2ccc(-c3ccccc3)cc2)CC1` [Compound 317, N-Biphenyl-4-yl-2-(4-phenyl-4-propionyl-piperidin-1-yl)-acetamide: hydrochloride], the IC50 in assay [3] ([125I]PYY) is 10 nM; in assay [4] (rNPY5 IC50, [125I]PYY) it was 11 nM.
On to `N#CCNCC(=O)Nc1ccc(C(=O)c2ccccc2)cc1` [Compound 211, N-(4-Benzoyl-phenyl)-2-(cyanomethyl-amino)-acetamide], for which the IC50 in assay [3] ([125I]PYY binding) turned out to be 1300 nM; in assay [4] (setting [5]), 1000 nM.
On to `O=C(CNc1c(I)cc(C(=O)O)cc1I)Nc1ccc(C(=O)c2ccccc2)cc1` [Compound 171, 4-{[(4-Benzoyl-phenylcarbamoyl)-methyl]-amino)-3,5-diiodo-benzoic acid], for which the IC50 turned out to be 530 nM in assay [3] ([125I]PYY binding) and 1200 nM in assay [4] (setting [5]).
The like results for `CC(C)(C)OC(=O)NC1CCN(CC(=O)Nc2ccc(C3CCCCC3)cc2)C1` (centres unmarked) [Compound 195, {1-[(4-Cyclohexyl-phenylcarbamoyl)-methyl]-pyrrolidin-3-yl}-carbamic acid tert-butyl ester] were, in that order, 26 nM and 26 nM.
The like results for `O=C(CNCc1ccc(C(=O)O)cc1)Nc1ccc(C(=O)c2ccccc2)cc1` [Compound 222, 4-({[(4-Benzoyl-phenylcarbamoyl)-methyl]-amino}-methyl)-benzoic acid] were, in that order, above 10000 nM and above 10000 nM.
As to `CNC1CCN(CC(=O)Nc2ccc(C(=O)c3ccccc3)cc2)C1` (centres unmarked) [Compound 203, N-(4-Benzoyl-phenyl)-2-(3-methylamino-pyrrolidin-1-yl)-acetamide], the figures for the IC50 in assay [3] ([125I]PYY binding) and in assay [4] (setting [5]) were 200 nM and 180 nM, respectively.
With `CC(=CC#N)NCC(=O)Nc1ccc(C2CCCCC2)cc1` [Compound 237, 2-(2-Cyano-1-methyl-vinylamino)-N-(4-cyclohexyl-phenyl)-acetamide], the values for the IC50 in assay [3] ([125I]PYY binding) and in assay [4] (setting [5]) were 4400 nM and 1000 nM, respectively.
The matching figures for `O=C(CNC(CO)CO)Nc1ccc(C2CCCCC2)cc1` [Compound 173, N-(4-Cyclohexyl-phenyl)-2-(2-hydroxy-1-hydroxymethyl-ethylamino)-acetamide]: 2000 nM and 920 nM.
Take `O=C(CN1CCC(CO)CC1)Nc1ccc(C2CCCCC2)cc1` [Compound 200, N-(4-Cyclohexyl-phenyl)-2-(4-hydroxymethyl-piperidin-1-yl)-acetamide]: the IC50 in assay [3] ([125I]PYY binding) came out at 530 nM; in assay [4] (setting [5]) it was 340 nM.
With `O=C(O)CC(NCC(=O)Nc1ccc(C2CCCCC2)cc1)C(F)(F)F` (centres unmarked) [Compound 180, 3-{[(4-Cyclohexyl-phenylcarbamoyl)-methyl]-amino}-4,4,4-trifluoro-butyric acid], the IC50 in assay [3] ([125I]PYY binding) worked out at 170 nM; in assay [4] (setting [5]) it was 120 nM.
Turning to “N-(4-Cyclohexyl-phenyl)-2-(3-ethylamino-pyrrolidin-1-yl)-acetamide [Compound 196]”, the IC50 came to 43 nM in assay [3] ([125I]PYY binding) and 49 nM in assay [4] (setting [5]).
Regarding `O=C(CNCc1ccc(C(=O)O)cc1)Nc1ccc(C2CCCCC2)cc1` [Compound 212], the IC50 in assay [3] ([125I]PYY binding) and in assay [4] (setting [5]) was above 10000 nM throughout.
Regarding “N-{[(4-Cyclohexyl-phenylcarbamoyl)-methyl]-pyrrolidin-3-yl}-2,2,2-trifluoro-acetamide [Compound 197]”, the IC50 in assay [3] ([125I]PYY binding) turned out to be 21 nM; in assay [4] (setting [5]), 20 nM.
As to `O=C(O)CC(NCC(=O)Nc1ccc(C(=O)c2ccccc2)cc1)C(F)(F)F` (centres unmarked) [Compound 190, 3-{[(4-Benzoyl-phenylcarbamoyl)-methyl]-amino}-4,4,4-trifluoro-butyric acid], the IC50 in assay [3] ([125I]PYY binding) and in assay [4] (setting [5]) was 340 nM in each case.
With `O=C(CNCc1ccco1)Nc1ccc(C2CCCCC2)cc1` [Compound 160, N-(4-Cyclohexyl-phenyl)-2-[(furan-2-ylmethyl)-amino]-acetamide], the results for the IC50 in assay [3] ([125I]PYY binding) and in assay [4] (setting [5]) were 660 nM and 450 nM, respectively.
The matching figures for `O=C(CNCCO)Nc1ccc(C2CCCCC2)cc1` [Compound 176, N-(4-Cyclohexyl-phenyl)-2-(2-hydroxy-ethylamino)-acetamide]: above 10000 nM and above 10000 nM.
With `CNC1CCN(CC(=O)Nc2ccc(C3CCCCC3)cc2)C1` (centres unmarked) [Compound 193, N-(4-Cyclohexyl-phenyl)-2-(3-methylamino-pyrrolidin-1-yl)-acetamide], the concentration for half-maximal inhibition (IC50) came out at 270 nM in assay [3] ([125I]PYY binding) and 250 nM in assay [4] (setting [5]).
`CCCC(CO)NCC(=O)Nc1ccc(C2CCCCC2)cc1` (centres unmarked) [Compound 216, N-(4-Cyclohexyl-phenyl)-2-(1-hydroxymethyl-butylamino)-acetamide]: the IC50 in assay [3] ([125I]PYY binding) was 450 nM; in assay [4] (setting [5]), above 10000 nM.
